The structures appear in SMILES notation.

The test system of the experiment is nasal epithelium. Briefly: Transepidermal water loss of the nasal epithelium (TEWAMETER 300 evaporation meter). Conditions: single nostril, after application, compared with basal state. Type of experiment: in vivo. As to the method: A single nostril is administered the test composition of Example 1 or a comparator solution, and transepidermal water loss is measured using an evaporation meter ([…] 300; Courage+Khazaka electronic GmbH, Germany) using the original probe. Subjects are positioned in a seated posture and hold their breath during measurements. Basal measurements are performed prior to application of a test composition.

On to `O` [water], for which the transepidermal water loss entry was “Little change”.

(Values after US8524290B2, “Non-occluding nasal moisturizer and methods of use” (priority 2010, dated 2013).)
